{
  "source": "paper PMC6270778",
  "about": "“Novel Cinnamic Acid Derivatives as Antioxidant and Anticancer Agents: Design, Synthesis and Modeling Studies” (Molecules, 2014)",
  "key": {"[1]": {"test": "ABTS+ decolorization assay", "details": "0.1 mM", "method": "The ABTS^•+ is derived from the oxidation of ABTS by potassium persulfate. It is a decolorization assay. The addition of electron-donating antioxidants leads to ABTS^•+ reduction. The chemistry taking place involves the direct generation of the ABTS^•+ with no involvement of an intermediary radical.\nIn this assay, ethanol is used for the dilution of the ABTS^+• solution. ABTS is dissolved in water to a 7 mM and reacts with 2.45 mM […] to produce the ABTS radical cation (ABTS^+•) by allowing the mixture to stand in the dark at room temperature for 12–16 h before use. Ten μL of diluted ABTS^+• solution (734 nm) is added to 10 μL of antioxidant compounds or Trolox standards (final concentration 0–0.1 mM) in ethanol and the absorbance is measured at 30 °C exactly 1 min after the initial mixing (Table 3)."}, "[2]": {"test": "Superoxide radical scavenging activity (non-enzymatic, PMS/NADH, NBT method)", "details": "0.1 mM; no = no action under the used experimental conditions", "method": "The superoxide anion radical (O2^−·) is less toxic than the hydroxyl radical, but still being one of the most known toxic ROS. Two different experimental assays are followed for the determination of superoxide anion radical scavenging activity: (i) one involves an enzymatic production of superoxide anions and (ii) the other is supported by a non- enzymatic procedure. Herein the test is performed at 0.1 mM concentration, generating superoxide anion radicals by a non-enzymatically assay (Table 3). Compound 1i presented the highest activity, followed by compound 1ii (75% and 50%, respectively).\nSuperoxide radicals were produced non-enzymatically by mixing PMS, NADH and air–oxygen. The nitroblue tetrazolium method was used for the estimation of the produced radicals. The reaction mixture containing compounds (0.1 mM), 3 μM PMS, 78 μM NADH, and 25 μM NBT in 19 μM phosphate buffer pH 7.4 was incubated for 2 min at room temperature. The acrylic acids were preincubated for 2 min before adding NADH (Table 4) and the absorption was recorded at 560 nm."}, "[3]": {"test": "Interaction with the stable radical DPPH", "method": "The novel acids were studied for the antioxidant activity by the use of the sTable 2,2-diphenyl-1-picrylhydrazyl radical (DPPH) at concentrations 0.05 and 0.1 mM after 20 and 60 min (Table 2). In the DPPH assay, the dominant chemical reaction involved is the reduction of the DPPH radical by single electron transfer SET from the antioxidant. Phenolic compounds eg. […] The compounds presented reducing abilities which ranged nearly 29% (4ii), small differences were found among the compounds with time and concentration. […] Due to steric reasons the interaction of DPPH with the tested compounds is low.\nTo a solution of DPPH in absolute ethanol the appropriate volume of the compounds (0.05 and 0.1 mM final concentrations) dissolved in DMSO was added. The absorbance was recorded at 517 nm after 20 and 60 min at room temperature (Table 3)."}, "[4]": {"test": "Hydroxyl radicals scavenging activity (Fe3+/ascorbic acid system, competition with DMSO)", "details": "0.1 mM; no = no action under the used experimental conditions", "method": "Thus we evaluated our acids for their competition with DMSO for ˙OH radicals was measured, hydroxyl radicals were produced by the Fe^3+/ascorbic acid system and expressed as percent inhibition of formaldehyde formation at 0.1 mM concentration (Table 3).\nThe hydroxyl radicals were produced by the Fe ^3+/ascorbic acid system. EDTA (0.1 mM), Fe ^3+ (167 μM), DMSO (33 mM) in phosphate buffer (50 mM, pH 7.4), the tested compounds (0.1 mM) and ascorbic acid (10 mM) were mixed in test tubes. The solutions were incubated at 37 °C for 30 min. The reaction was stopped by CCl3COOH (17% w/v) (Table 4) and the % scavenging activity of the tested compounds for hydroxyl radicals was given."}, "[5]": {"test": "Inhibition of linoleic acid peroxidation (AAPH)", "details": "0.1 mM", "description": "For the in vitro study of the free radical production, azo compounds generating free radicals through spontaneous thermal decomposition are used. The water soluble 2,2'-azobis(2-amidinopropane) hydrochloride (AAPH) is recommended as appropriate for measuring radical-scavenging activity in vitro. The activity of the peroxyl radicals produced by the action of AAPH greatly resembles to cellular activities such as lipid peroxidation. The phenyl substituted acids presented remarkable activity at 0.1 mM concentration (84%–92%) compared to the non-substituted derivatives (20%–63%).\nFor initiating the free radical, 2,2'-azobis(2-amidinopropane) dihydrochloride (AAPH) is used. The final solution in the UV cuvette consisted of ten microliters of the 16 mM linoleate sodium dispersion 0.93 mL of 0.05 M phosphate buffer, pH 7.4, thermostatted at 37 °C. 50 μL of 40 mM AAPH solution was added as a free radical initiator at 37 °C under air and 10 μL of the tested compounds. The oxidation of linoleic acid sodium salt results a conjugated diene hydroperoxide. The reaction is monitored at 234 nm (Table 3)."}},
  "data": [
    {"smiles": "O=C1O[C@H]([C@@H](O)CO)C(O)=C1O", "note": "[Ascorbic Acid, reference compound]", "values": [
      {"measurement": "ABTS+· (%) (±SD)", "setting": "[1]", "result": "96 ± 0.9", "unit": "%"}
    ]},
    {"smiles": "O=C(O)/C=C/c1ccc(O)c(O)c1", "note": "[Caffeic acid, caffeic acid, reference compound]", "values": [
      {"measurement": "O2−· (%) (±SD)", "setting": "[2]", "result": "46 ± 0.5", "unit": "%"}
    ]},
    {"smiles": "CC(Cc1ccc(O)c(O)c1)C(C)Cc1ccc(O)c(O)c1", "note": "(stereo not drawn) [NDGA, nordihydroguaretic acid, reference compound]", "values": [
      {"measurement": "RA % (±SD), DPPH", "setting": "[3]; 0.05 mM, 20 min", "result": "85 ± 1.6", "unit": "%"},
      {"measurement": "RA % (±SD), DPPH", "setting": "[3]; 0.05 mM, 60 min", "result": "83 ± 1.1", "unit": "%"},
      {"measurement": "RA % (±SD), DPPH", "setting": "[3]; 0.1 mM, 20 min", "result": "81 ± 0.8", "unit": "%"},
      {"measurement": "RA % (±SD), DPPH", "setting": "[3]; 0.1 mM, 60 min", "result": "83 ± 0.7", "unit": "%"}
    ]},
    {"smiles": "Cc1c(C)c2c(c(C)c1O)CCC(C)(C(=O)O)O2", "note": "(stereo not drawn) [Trolox, reference compound]", "values": [
      {"measurement": "ABTS+· (%) (±SD)", "setting": "[1]", "result": "88 ± 1.7", "unit": "%"},
      {"measurement": "HO (%) (±SD)", "setting": "[4]", "result": "73 ± 1.0", "unit": "%"},
      {"measurement": "AAPH (%) (±SD), inhibition of linoleic acid peroxidation", "setting": "[5]", "result": "63 ± 1.3", "unit": "%"}
    ]}
  ]
}
